What all share (assay): NCI-60 cell line screen, 48 h
Experiment [1] relates to A549.
In experiment [2] the test system is RPMI-8226.
The subject of experiment [3] is UO-31.
Experiment [4] has as its system COLO 205.
The subject of experiment [5] is M14.
The subject of experiment [6] is HCC 2998.
Experiment [7] has as its system NCI/ADR-RES.
Experiment [8] has as its system CAKI-1.
Experiment [9] deals with A498.
Experiment [10] deals with HCT-15.
Experiment [11] has as its system SF-295.
Experiment [12] relates to SK-MEL-5.
For experiment [13], the system named is IGROV-1.
The subject of experiment [14] is Malme-3M.
The test system of experiment [15] is MCF7.
The test system of experiment [16] is Hs-578T.
The test system of experiment [17] is KM12.
The subject of experiment [18] is MDA-N.
For experiment [19], the system named is HL-60.
Experiment [20] has as its system MDA-MB-231.

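Results reflect a 48-hour exposure of cells in 96-well plates to compound at five concentrations. GI50 = concentration required for 50% inhibition of growth.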 The source made the active and inactive calls. Rule as the data show it: active = GI50 up to about 1.1 µM and inactive = higher.

Regarding `O=c1ccn(-c2ccccn2)c(=O)n1-c1ccccn1`, the GI50 in [1], in experiment [2], in experiment [3], in [4], in experiment [5] and in [6] was > 100 µM (inactive) in each case. Further, the GI50 in [7] was > 100 µM (inactive); in experiment [8], > 100 µM (inactive); in [9], > 100 µM (inactive); in experiment [10], above 100 µM; in experiment [11], > 100 µM (inactive); in [12], > 100 µM (inactive). Also, the GI50 in [13], in experiment [14], in [15], in [16], in experiment [17] and in experiment [18] was > 100 µM (inactive) each time. Besides, the GI50 in experiment [19] and in [20] was > 100 µM (inactive) in each case.

`N#CC1=C(N)OC2=C(CCCc3ccccc32)C1c1ccc([N+](=O)[O-])cc1` (stereo not given): the GI50 in experiment [1] was 19 µM (inactive); in experiment [2] it was 1.85 µM (inactive); in experiment [3], 11.8 µM (inactive); in [4], 16.1 µM (inactive); in [5], 13.6 µM (inactive); in experiment [6] it was 13.6 µM (inactive). Besides, the GI50 is 11.9 µM (inactive) in experiment [7]; 29.6 µM (inactive) in experiment [8]; 12 µM (inactive) in experiment [9]; 12.2 µM in [10]; 14.9 µM (inactive) in [11]; 14.3 µM (inactive) in [12]. The GI50 in [13] was 19.2 µM (inactive); in experiment [14] it was 16.3 µM (inactive); in experiment [15] it was 16.7 µM (inactive); in experiment [16] it was 36.5 µM (inactive); in [17] it was 16.1 µM (inactive); in experiment [18], 15.9 µM (inactive). For the same compound, the GI50 in experiment [19] was 5.93 µM (inactive); in [20], 26.9 µM (inactive).

For `COc1ccc(-c2nc(N3CCCC3)no2)cc1`, the GI50 in [1] was 38 µM (inactive); in experiment [2], 32.7 µM (inactive); in [3], 49.4 µM (inactive); in [4], > 100 µM (inactive); in experiment [5] it was 81.3 µM (inactive); in [6], 73.5 µM (inactive). In addition, the GI50 in experiment [7] is 44.5 µM (inactive); in [8], 51.6 µM (inactive); in experiment [9], 31.6 µM (inactive); in [10] it was 58.9 µM; in experiment [11] it was 21.2 µM (inactive); in [12], 53.6 µM (inactive). Moreover, the GI50 in experiment [13] was 18.9 µM (inactive); in experiment [14] it was 11.6 µM (inactive); in experiment [15], 43.2 µM (inactive); in [16] it was 24.9 µM (inactive); in experiment [17], 88.5 µM (inactive); in [18], 67 µM (inactive). The GI50 is 1.5 µM (inactive) in experiment [19] and 50.1 µM (inactive) in experiment [20].

As for `CC(NC1=CC(=O)c2ncccc2C1=O)C(O)c1ccccc1` (stereo not given), the GI50 was 3.03 µM (inactive) in experiment [1]; 13.4 µM (inactive) in [2]; 2.95 µM (inactive) in experiment [3]; 16 µM (inactive) in experiment [4]; 2.57 µM (inactive) in experiment [5]; 10.2 µM (inactive) in [6]. The GI50 in experiment [7] is 8.15 µM (inactive); in [8], 6.78 µM (inactive); in experiment [9] it was 13.4 µM (inactive); in [10], 3.91 µM; in experiment [11], 3.32 µM (inactive); in experiment [12] it was 1.18 µM (inactive). Also, the GI50 in experiment [13] was 3.67 µM (inactive); in [14], 1.89 µM (inactive); in experiment [15], 2.31 µM (inactive); in experiment [16], 4.2 µM (inactive); in experiment [17], 7.67 µM (inactive); in [18], 1.58 µM (inactive). For the same compound, the figures for the GI50 in experiment [19] and in experiment [20] were 3.44 µM (inactive) and 2.41 µM (inactive), respectively.

As to `CC1(C)CC(=O)c2c(-c3ccc(Cl)cc3)c(C#N)c(=S)n(C3OC(CO)C(O)C(O)C3O)c2C1` (stereo not given), the GI50 in experiment [1] is 36.1 µM (inactive); in [2] it was 22.5 µM (inactive); in [3], 29.6 µM (inactive); in experiment [4], 34 µM (inactive); in experiment [5] it was 45.7 µM (inactive); in [6], 36.7 µM (inactive). The GI50 is 34.4 µM (inactive) in experiment [7]; 78.7 µM (inactive) in experiment [8]; 34 µM (inactive) in experiment [9]; 21.4 µM in [10]; 38 µM (inactive) in experiment [11]; 15.2 µM (inactive) in [12]. In addition, the GI50 was 56.8 µM (inactive) in experiment [13]; 31 µM (inactive) in experiment [14]; 33.7 µM (inactive) in experiment [15]; 25.4 µM (inactive) in experiment [16]; 37.3 µM (inactive) in experiment [17]; 19.1 µM (inactive) in [18]. Also, the GI50 is 20.2 µM (inactive) in [19] and 33.5 µM (inactive) in experiment [20].

Regarding `Cc1ccc(S(=O)(=O)OC2C3OC(C)(C)OC3OC2C(c2cc(O)c3c(c2O)C(=O)c2ccccc2C3=O)c2cc(O)c3c(c2O)C(=O)c2ccccc2C3=O)cc1` (stereo not given), the GI50 in experiment [1], in [2], in [3], in [4], in [5] and in experiment [6] was > 10 µM (inactive) throughout. In addition, the GI50 in experiment [7] was > 10 µM (inactive); in experiment [8], > 10 µM (inactive); in experiment [9], > 10 µM (inactive); in experiment [10], above 10 µM; in experiment [11], > 10 µM (inactive); in experiment [12], > 10 µM (inactive). For the same compound, the GI50 in experiment [13], in experiment [14], in experiment [15], in [16], in experiment [17] and in experiment [18] was > 10 µM (inactive) each time. Further, the GI50 in experiment [19] and in [20] was > 10 µM (inactive) each time.

`N=C(N)N/N=C/c1cnn(C(=N)N)c1`: the GI50 in [1], in experiment [2], in [3], in experiment [4], in experiment [5] and in experiment [6] was > 100 µM (inactive) throughout. In addition, the GI50 in experiment [7] is > 100 µM (inactive); in experiment [8] it was > 100 µM (inactive); in [9], > 100 µM (inactive); in experiment [10], above 100 µM; in experiment [11], > 100 µM (inactive); in experiment [12] it was > 100 µM (inactive). The GI50 was > 100 µM (inactive) in [13]; > 100 µM (inactive) in experiment [14]; > 100 µM (inactive) in experiment [15]; > 100 µM (inactive) in experiment [16]; 64.1 µM (inactive) in [17]; > 100 µM (inactive) in experiment [18]. In addition, the GI50 in experiment [19] and in experiment [20] was > 100 µM (inactive) in each case.

For the compound `N#CC(NNC(=O)Cc1ccccc1)c1c(O)ccc2ccccc12` (stereo not given), the GI50 in [1] was 5.51 µM (inactive); in experiment [2], 3.63 µM (inactive); in [3], 2.84 µM (inactive); in [4], 24.7 µM (inactive); in experiment [5], 5.13 µM (inactive); in experiment [6], 14.3 µM (inactive). Also, the GI50 in experiment [7] is 2.92 µM (inactive); in experiment [8], 4.91 µM (inactive); in experiment [9], 30.3 µM (inactive); in experiment [10] it was 2.7 µM; in experiment [11] it was 4.63 µM (inactive); in experiment [12], 3.46 µM (inactive). For the same compound, the GI50 in experiment [13] was 5.31 µM (inactive); in experiment [14], 4.4 µM (inactive); in experiment [15], 3.15 µM (inactive); in experiment [16] it was 7.64 µM (inactive); in experiment [17] it was 4.02 µM (inactive); in experiment [18], 7.5 µM (inactive). Moreover, the GI50 is 1.67 µM (inactive) in [19] and 4.19 µM (inactive) in experiment [20].

As for `Cc1ccc2c(c1)C(C1Cc3c(C)cccc3C1=O)OC2=O` (stereo not given), the GI50 was > 100 µM (inactive) in experiment [1]; 63.2 µM (inactive) in experiment [2]; > 100 µM (inactive) in experiment [3]; > 100 µM (inactive) in [4]; > 100 µM (inactive) in experiment [5]; > 100 µM (inactive) in [6]. The GI50 is 40.4 µM (inactive) in experiment [7]; > 100 µM (inactive) in [8]; > 100 µM (inactive) in [9]; 89.7 µM in [10]; > 100 µM (inactive) in experiment [11]; > 100 µM (inactive) in experiment [12]. The GI50 in experiment [13], in experiment [14], in experiment [15], in experiment [16], in experiment [17] and in [18] was > 100 µM (inactive) each time. In addition, the GI50 in [19] and in [20] was > 100 µM (inactive) each time.

On to `CC1=NN(C(=O)CC(=O)Nc2ccccc2Cl)C(=O)C1/N=N/c1ccc(C(=O)O)cc1` (stereo not given), for which the GI50 is > 100 µM (inactive) in experiment [1]; > 100 µM (inactive) in experiment [2]; 62.8 µM (inactive) in [3]; > 100 µM (inactive) in experiment [4]; > 100 µM (inactive) in experiment [5]; > 100 µM (inactive) in experiment [6]. Further, the GI50 was > 100 µM (inactive) in [7]; > 100 µM (inactive) in experiment [8]; > 100 µM (inactive) in experiment [9]; above 100 µM in experiment [10]; > 100 µM (inactive) in experiment [11]; > 100 µM (inactive) in experiment [12]. Further, the GI50 in experiment [13], in [14], in [15], in experiment [16], in [17] and in experiment [18] was > 100 µM (inactive) throughout. In addition, the GI50 in experiment [19] and in experiment [20] was > 100 µM (inactive) in each case.
